Reference: PubChem BioAssay AID272 (DTP/NCI, 2004)
Records with an inconclusive call do not appear.

Tested on: Lewis lung carcinoma i.m., BDF1 mice, T/C %
Assay: NCI In Vivo Anticancer Drug Screen. Data for tumor model Lewis Lung Carcinoma (intramuscular) in B6D2F1 (BDF1) mice
Summary of the method: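 Mice carrying transplantable tumours received test compound. Survival or tumour size was recorded and expressed as the treated-group value (T) divided by the vehicle-treated control-group value (C).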

[1] = endpoint: mean tumor weight (est.), dose: 12.5 mg/kg/injection, schedule: Q01DX011 (ip), vehicle: saline with Tween-80, higher = larger tumour
[2] = endpoint: mean tumor weight (est.), dose: 25.0 mg/kg/injection, schedule: Q01DX011 (ip), vehicle: saline with Tween-80, higher = larger tumour
[3] = endpoint: median survival time, dose: 25.0 mg/kg/injection, schedule: Q01DX011 (ip), vehicle: saline with Tween-80, higher = longer survival
[4] = endpoint: median survival time, dose: 10.0 mg/kg/injection, schedule: Q01DX011 (ip), vehicle: saline with Tween-80, higher = longer survival

## COc1ccc(C(=O)/C(Br)=C/C(=O)O)cc1
endpoint: mean tumor weight, dose: 40.0 mg/kg/injection, schedule: Q01DX011 (ip), vehicle: saline, higher = larger tumour
  T/C: 48 % of control

## O=c1ccc2nc3ccccc3sc-2c1
[1]
  T/C: 73 % of control
[2]
  T/C: 75 % of control
endpoint: mean tumor weight (est.), dose: 50.0 mg/kg/injection, schedule: Q01DX011 (ip), vehicle: saline with Tween-80, higher = larger tumour
  T/C: 78 % of control
endpoint: mean tumor weight (est.), dose: 100.0 mg/kg/injection, schedule: Q01DX011 (ip), vehicle: saline with Tween-80, higher = larger tumour
  T/C: 42 % of control
[3]
  T/C: 89 % of control

## COC1=C(N)C(=O)c2nc(-c3nc(C(=O)O)c(C)c(-c4ccc(OC)c(OC)c4O)c3N)ccc2C1=O
endpoint: median survival time, dose: 0.02 mg/kg/injection, schedule: Q01DX011 (ip), vehicle: other, higher = longer survival
  T/C: 105 % of control
endpoint: median survival time, dose: 0.02 mg/kg/injection, schedule: Q01DX011 (ip), vehicle: saline, higher = longer survival
  T/C: 92 % of control
endpoint: median survival time, dose: 0.03 mg/kg/injection, schedule: Q01DX009 (ip), vehicle: saline, higher = longer survival
  T/C: 86 % of control
endpoint: median survival time, dose: 0.03 mg/kg/injection, schedule: Q01DX011 (ip), vehicle: saline, higher = longer survival
  T/C: 96 % of control
endpoint: median survival time, dose: 0.05 mg/kg/injection, schedule: Q01DX009 (ip), vehicle: saline, higher = longer survival
  T/C: 90 % of control
endpoint: median survival time, dose: 0.05 mg/kg/injection, schedule: Q01DX011 (ip), vehicle: other, higher = longer survival
  T/C: 90 % of control
endpoint: median survival time, dose: 0.06 mg/kg/injection, schedule: Q01DX011 (ip), vehicle: saline, higher = longer survival
  T/C: 94 % of control
endpoint: median survival time, dose: 0.1 mg/kg/injection, schedule: Q01DX011 (ip), vehicle: other, higher = longer survival
  T/C: 100 % of control
endpoint: median tumor weight (est.), dose: 0.02 mg/kg/injection, schedule: Q01DX011 (ip), vehicle: saline, higher = larger tumour
  T/C: 72 % of control
endpoint: median tumor weight (est.), dose: 0.03 mg/kg/injection, schedule: Q01DX011 (ip), vehicle: saline, higher = larger tumour
  T/C: 81 % of control
endpoint: median tumor weight (est.), dose: 0.06 mg/kg/injection, schedule: Q01DX011 (ip), vehicle: saline, higher = larger tumour
  T/C: 77 % of control
endpoint: median tumor weight (est.), dose: 0.12 mg/kg/injection, schedule: Q01DX011 (ip), vehicle: saline, higher = larger tumour
  T/C: 55 % of control

## CNC(=S)N/N=C/C(C)=N/NC(=S)NC
endpoint: median survival time, dose: 0.2 micrograms/kg/injection, schedule: Q01DX011 (ip), vehicle: saline with Tween-80, higher = longer survival
  T/C: 100 % of control
endpoint: median survival time, dose: 0.5 micrograms/kg/injection, schedule: Q01DX011 (ip), vehicle: saline with Tween-80, higher = longer survival
  T/C: 102 % of control
endpoint: median survival time, dose: 1.0 micrograms/kg/injection, schedule: Q01DX011 (ip), vehicle: saline with Tween-80, higher = longer survival
  T/C: 102 % of control

## O=C1NC(=O)C(F)(F)C(O)N1 (stereo not given)
endpoint: mean tumor weight (est.), dose: 40.0 mg/kg/injection, schedule: Q01DX011 (ip), vehicle: saline, higher = larger tumour
  T/C: 103 % of control
endpoint: mean tumor weight (est.), dose: 80.0 mg/kg/injection, schedule: Q01DX011 (ip), vehicle: saline, higher = larger tumour
  T/C: 80 % of control
endpoint: mean tumor weight (est.), dose: 160.0 mg/kg/injection, schedule: Q01DX011 (ip), vehicle: saline, higher = larger tumour
  T/C: 43 % of control
endpoint: median survival time, dose: 40.0 mg/kg/injection, schedule: Q01DX011 (ip), vehicle: saline, higher = longer survival
  T/C: 98 % of control
endpoint: median survival time, dose: 80.0 mg/kg/injection, schedule: Q01DX011 (ip), vehicle: saline, higher = longer survival
  T/C: 103 % of control

## CN(Cc1ccccc1)/N=N/c1nc[nH]c1C(N)=O
endpoint: mean tumor weight, dose: 50.0 mg/kg/injection, schedule: Q01DX011 (ip), vehicle: saline, higher = larger tumour
  T/C: 64 % of control
endpoint: median survival time, dose: 50.0 mg/kg/injection, schedule: Q01DX011 (ip), vehicle: saline, higher = longer survival
  T/C: 91 % of control

## O=c1[nH]cc(N(CCCl)CCCl)c(=O)[nH]1
endpoint: median survival time, dose: 0.13 mg/kg/injection, schedule: Q01DX011 (ip), vehicle: other, higher = longer survival
  T/C: 104 % of control
endpoint: median survival time, dose: 0.25 mg/kg/injection, schedule: Q01DX011 (ip), vehicle: other, higher = longer survival
  T/C: 110 % of control
endpoint: median survival time, dose: 0.5 mg/kg/injection, schedule: Q01DX011 (ip), vehicle: other, higher = longer survival
  T/C: 102 % of control
endpoint: median survival time, dose: 0.5 mg/kg/injection, schedule: Q01DX011 (ip), vehicle: saline, higher = longer survival
  T/C: 92 % of control

## CNNCc1ccc(C(=O)NC(C)C)cc1
endpoint: mean tumor weight (est.), dose: 23.0 mg/kg/injection, schedule: Q01DX009 (ip), vehicle: saline, higher = larger tumour
  T/C: 86 % of control
endpoint: mean tumor weight (est.), dose: 39.0 mg/kg/injection, schedule: Q01DX009 (ip), vehicle: saline, higher = larger tumour
  T/C: 95 % of control
endpoint: mean tumor weight (est.), dose: 65.0 mg/kg/injection, schedule: Q01DX009 (ip), vehicle: saline, higher = larger tumour
  T/C: 64 % of control
endpoint: mean tumor weight (est.), dose: 108.0 mg/kg/injection, schedule: Q01DX009 (ip), vehicle: saline, higher = larger tumour
  T/C: 79 % of control
endpoint: mean tumor weight (est.), dose: 180.0 mg/kg/injection, schedule: Q01DX009 (ip), vehicle: saline, higher = larger tumour
  T/C: 95 % of control
endpoint: mean tumor weight (est.), dose: 300.0 mg/kg/injection, schedule: Q01DX009 (ip), vehicle: saline, higher = larger tumour
  T/C: 37 % of control
endpoint: mean tumor weight, dose: 23.0 mg/kg/injection, schedule: Q01DX011 (ip), vehicle: saline, higher = larger tumour
  T/C: 100 % of control
endpoint: mean tumor weight, dose: 37.5 mg/kg/injection, schedule: Q01DX011 (ip), vehicle: saline, higher = larger tumour
  T/C: 78 % of control
endpoint: mean tumor weight, dose: 39.0 mg/kg/injection, schedule: Q01DX011 (ip), vehicle: saline, higher = larger tumour
  T/C: 72 % of control
endpoint: mean tumor weight, dose: 65.0 mg/kg/injection, schedule: Q01DX011 (ip), vehicle: saline, higher = larger tumour
  T/C: 37 % of control
endpoint: mean tumor weight, dose: 75.0 mg/kg/injection, schedule: Q01DX011 (ip), vehicle: saline, higher = larger tumour
  T/C: 62 % of control
endpoint: mean tumor weight, dose: 108.0 mg/kg/injection, schedule: Q01DX011 (ip), vehicle: saline, higher = larger tumour
  T/C: 62 % of control
endpoint: mean tumor weight, dose: 150.0 mg/kg/injection, schedule: Q01DX011 (ip), vehicle: saline, higher = larger tumour
  T/C: 35 % of control
endpoint: mean tumor weight, dose: 180.0 mg/kg/injection, schedule: Q01DX011 (ip), vehicle: saline, higher = larger tumour
  T/C: 41 % of control
endpoint: median survival time, dose: 37.5 mg/kg/injection, schedule: Q01DX011 (ip), vehicle: saline, higher = longer survival
  T/C: 97 % of control
endpoint: median survival time, dose: 75.0 mg/kg/injection, schedule: Q01DX011 (ip), vehicle: saline, higher = longer survival
  T/C: 91 % of control
endpoint: median survival time, dose: 150.0 mg/kg/injection, schedule: Q01DX011 (ip), vehicle: saline, higher = longer survival
  T/C: 95 % of control

## N#Cc1c(F)c(F)c(C#N)c(F)c1F
endpoint: mean tumor weight (est.), dose: 1.25 mg/kg/injection, schedule: Q01DX011 (ip), vehicle: saline with Tween-80, higher = larger tumour
  T/C: 100 % of control
endpoint: mean tumor weight (est.), dose: 2.5 mg/kg/injection, schedule: Q01DX011 (ip), vehicle: saline with Tween-80, higher = larger tumour
  T/C: 95 % of control
endpoint: mean tumor weight (est.), dose: 5.0 mg/kg/injection, schedule: Q01DX011 (ip), vehicle: saline with Tween-80, higher = larger tumour
  T/C: 101 % of control
endpoint: mean tumor weight (est.), dose: 10.0 mg/kg/injection, schedule: Q01DX011 (ip), vehicle: saline with Tween-80, higher = larger tumour
  T/C: 70 % of control
endpoint: median survival time, dose: 1.25 mg/kg/injection, schedule: Q01DX011 (ip), vehicle: saline with Tween-80, higher = longer survival
  T/C: 87 % of control
[4]
  T/C: 89 % of control

## CCC[CH2][Sn](=[S])[CH2]CCC
endpoint: mean tumor weight (est.), dose: 6.25 mg/kg/injection, schedule: Q01DX011 (ip), vehicle: saline with Tween-80, higher = larger tumour
  T/C: 103 % of control
[1]
  T/C: 77 % of control
[2]
  T/C: 55 % of control
endpoint: median survival time, dose: 6.25 mg/kg/injection, schedule: Q01DX011 (ip), vehicle: saline with Tween-80, higher = longer survival
  T/C: 102 % of control
endpoint: median survival time, dose: 12.5 mg/kg/injection, schedule: Q01DX011 (ip), vehicle: saline with Tween-80, higher = longer survival
  T/C: 116 % of control
[3]
  T/C: 112 % of control

## COC(=O)[CH](C[N+](=O)[O-])[Hg][Cl] (stereo not given)
endpoint: mean tumor weight (est.), dose: 3.12 mg/kg/injection, schedule: Q01DX011 (ip), vehicle: saline, higher = larger tumour
  T/C: 79 % of control
endpoint: mean tumor weight (est.), dose: 6.25 mg/kg/injection, schedule: Q01DX011 (ip), vehicle: saline, higher = larger tumour
  T/C: 69 % of control
endpoint: mean tumor weight (est.), dose: 12.5 mg/kg/injection, schedule: Q01DX011 (ip), vehicle: saline, higher = larger tumour
  T/C: 71 % of control
endpoint: median survival time, dose: 3.12 mg/kg/injection, schedule: Q01DX011 (ip), vehicle: saline, higher = longer survival
  T/C: 107 % of control
endpoint: median survival time, dose: 6.25 mg/kg/injection, schedule: Q01DX011 (ip), vehicle: saline, higher = longer survival
  T/C: 115 % of control
endpoint: median survival time, dose: 12.5 mg/kg/injection, schedule: Q01DX011 (ip), vehicle: saline, higher = longer survival
  T/C: 88 % of control

## O=Nc1c(N=O)c(N=O)c(N=O)c(N=O)c1N=O
endpoint: median survival time, dose: 5.0 mg/kg/injection, schedule: Q01DX011 (ip), vehicle: saline with Tween-80, higher = longer survival
  T/C: 110 % of control
[4]
  T/C: 106 % of control
endpoint: median survival time, dose: 20.0 mg/kg/injection, schedule: Q01DX011 (ip), vehicle: saline with Tween-80, higher = longer survival
  T/C: 115 % of control

## CC(=O)OC1CC(OC2C(O)CC(OC3C(O)CC(OC4CCC5(C)C(CCC6C5CCC5(C)C(C7=CC(=O)OC7)C(O)CC65O)C4)OC3C)OC2C)OC(C)C1OC1OC(CO)C(O)C(O)C1O (stereo not given)
endpoint: median survival time, dose: 3.0 mg/kg/injection, schedule: Q01DX011 (ip), vehicle: saline, higher = longer survival
  T/C: 106 % of control
endpoint: median survival time, dose: 6.0 mg/kg/injection, schedule: Q01DX011 (ip), vehicle: saline, higher = longer survival
  T/C: 110 % of control
endpoint: median survival time, dose: 12.0 mg/kg/injection, schedule: Q01DX011 (ip), vehicle: saline, higher = longer survival
  T/C: 102 % of control
endpoint: median survival time, dose: 24.0 mg/kg/injection, schedule: Q01DX011 (ip), vehicle: saline, higher = longer survival
  T/C: 104 % of control
endpoint: median survival time, dose: 48.0 mg/kg/injection, schedule: Q01DX011 (ip), vehicle: saline, higher = longer survival
  T/C: 102 % of control
